These results are taken from BindingDB's records for doi:10.1021/ja058636j (Purdue University, 2006).

Holding throughout (assay): Enzyme Inhibition Measurements
What all share (conditions): pH 4.5; 37 °C

The target of one experiment is Beta-secretase 1 (Homo sapiens, UniProt P56817). As for the experimental part: (§1) Enzyme activities were assayed by monitoring the hydrolysis of substrate in the presence or absence of inhibitor compounds. The hydrolysis was recorded as the increase in fluorescence intensity over a 10 min time period. […] The Ki was calculated by using Ki = IC50/ (1 + [S]/Km), and a Km value determined according to Michaelis-Menten.
Beta-secretase 1, sequence (P56817 whole entry): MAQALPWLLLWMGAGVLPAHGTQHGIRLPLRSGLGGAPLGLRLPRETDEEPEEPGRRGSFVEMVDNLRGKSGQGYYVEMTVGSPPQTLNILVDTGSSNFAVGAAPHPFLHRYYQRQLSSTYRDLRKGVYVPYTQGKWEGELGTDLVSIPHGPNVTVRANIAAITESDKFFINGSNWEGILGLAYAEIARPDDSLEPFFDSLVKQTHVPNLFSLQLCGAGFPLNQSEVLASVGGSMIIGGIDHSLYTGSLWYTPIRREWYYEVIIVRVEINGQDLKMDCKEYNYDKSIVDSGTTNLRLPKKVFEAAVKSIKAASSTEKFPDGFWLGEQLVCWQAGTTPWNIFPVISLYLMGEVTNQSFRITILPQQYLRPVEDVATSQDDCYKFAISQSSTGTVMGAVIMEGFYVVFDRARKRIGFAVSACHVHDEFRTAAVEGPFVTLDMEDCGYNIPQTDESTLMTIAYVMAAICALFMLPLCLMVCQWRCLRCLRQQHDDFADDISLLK

For a further experiment, the target named is T1, Beta-secretase 2 (Homo sapiens, UniProt Q9Y5Z0).
T1 sequence (Q9Y5Z0 whole entry): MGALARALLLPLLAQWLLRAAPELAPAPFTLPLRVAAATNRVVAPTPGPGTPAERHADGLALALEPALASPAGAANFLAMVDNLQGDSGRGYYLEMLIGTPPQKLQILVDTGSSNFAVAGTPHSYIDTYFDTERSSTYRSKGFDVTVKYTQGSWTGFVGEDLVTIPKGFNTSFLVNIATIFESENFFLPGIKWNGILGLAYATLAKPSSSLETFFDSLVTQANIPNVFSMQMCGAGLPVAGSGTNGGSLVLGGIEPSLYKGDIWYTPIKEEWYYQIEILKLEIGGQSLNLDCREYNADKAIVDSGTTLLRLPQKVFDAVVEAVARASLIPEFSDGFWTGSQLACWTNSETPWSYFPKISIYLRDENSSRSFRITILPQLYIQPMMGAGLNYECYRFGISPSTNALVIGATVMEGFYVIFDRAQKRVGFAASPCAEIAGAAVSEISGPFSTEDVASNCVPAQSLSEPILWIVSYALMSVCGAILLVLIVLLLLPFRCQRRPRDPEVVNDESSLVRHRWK
As for the experimental part: as §1

A further experiment addresses Cathepsin D (Homo sapiens, UniProt P07339). The protocol:
as §1

Cathepsin D, sequence (P07339 65-162 limits assumed): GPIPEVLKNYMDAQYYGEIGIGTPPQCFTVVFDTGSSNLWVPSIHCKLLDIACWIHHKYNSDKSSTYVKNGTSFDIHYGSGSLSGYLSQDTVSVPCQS
Cathepsin D, sequence (P07339 169-412 limits assumed): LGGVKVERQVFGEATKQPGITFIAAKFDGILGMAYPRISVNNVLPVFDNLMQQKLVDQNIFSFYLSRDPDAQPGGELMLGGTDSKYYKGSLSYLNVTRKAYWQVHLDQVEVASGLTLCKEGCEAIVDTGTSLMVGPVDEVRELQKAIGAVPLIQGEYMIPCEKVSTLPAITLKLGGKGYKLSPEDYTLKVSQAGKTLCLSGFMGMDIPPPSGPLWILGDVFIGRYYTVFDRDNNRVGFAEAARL

Consider `CSC[C@H](NC(=O)OCn1nc(C)cc1C)C(=O)N[C@@H](CC(C)C)[C@@H](O)C[C@@H](C)C(=O)N[C@H](C(=O)NCC(C)C)C(C)C` [(3,5-dimethyl-1H-pyrazol-1-yl)methyl N-[(1R)-1-{[(1R,3S,4S)-3-hydroxy-1,6-dimethyl-1-{[(1S)-2-methyl-1-[(2-methylpropyl)carbamoyl]propyl]carbamoyl}heptan-4-yl]carbamoyl}-2-(methylsulfanyl)ethyl]carbamate], for which the figures for the Ki on Beta-secretase 1, on Beta-secretase 2 and on Cathepsin D were 4.4 nM, 161 nM and 15 nM, respectively.
As to `CSCC[C@H](NC(=O)OCn1nc(C)cc1C)C(=O)N[C@@H](CC(C)C)[C@@H](O)C[C@@H](C)C(=O)N[C@H](C(=O)NCc1ccccc1)C(C)C` [(3,5-dimethyl-1H-pyrazol-1-yl)methyl N-[(1S)-1-{[(1R,3S,4S)-1-{[(1S)-1-(benzylcarbamoyl)-2-methylpropyl]carbamoyl}-3-hydroxy-1,6-dimethylheptan-4-yl]carbamoyl}-3-(methylsulfanyl)propyl]carbamate], the values for the inhibition constant Ki at Beta-secretase 1 and at Cathepsin D were 14 nM and 25 nM, respectively.
Turning to `Cc1nc(COC(=O)N[C@@H](CS(C)(=O)=O)C(=O)N[C@@H](CC(C)C)[C@@H](O)C[C@@H](C)C(=O)N[C@H](C(=O)NCC(C)C)C(C)C)c(C)o1` [N2-[(2R,4S,5S)-5-{[N-{[(2,5-dimethyl-1,3-oxazol-4-yl)methoxy]carbonyl}-3-(methylsulfonyl)-L-alanyl]amino}-4-hydroxy-2,7-dimethyloctanoyl]-N-(2-methylpropyl)-L-valinamide], the Ki (as a rule, a measure of affinity in units of concentration, obtained from inhibition or displacement) on Beta-secretase 1 came to 0.12 nM; on Beta-secretase 2, 458 nM; on Cathepsin D, 304 nM.
